Tests used:
[1] = biological target: T1, human recombinant A1 receptors (Homo sapiens, UniProt P30542); assay: Estimation of Adenosine A1-receptor antagonizing activity ([3H]-DPCPX binding, CHO cell membrane fractions)
T1 construct: expressed in transfected cells; host or cells: CHO cells
T1 sequence (P30542 1-326): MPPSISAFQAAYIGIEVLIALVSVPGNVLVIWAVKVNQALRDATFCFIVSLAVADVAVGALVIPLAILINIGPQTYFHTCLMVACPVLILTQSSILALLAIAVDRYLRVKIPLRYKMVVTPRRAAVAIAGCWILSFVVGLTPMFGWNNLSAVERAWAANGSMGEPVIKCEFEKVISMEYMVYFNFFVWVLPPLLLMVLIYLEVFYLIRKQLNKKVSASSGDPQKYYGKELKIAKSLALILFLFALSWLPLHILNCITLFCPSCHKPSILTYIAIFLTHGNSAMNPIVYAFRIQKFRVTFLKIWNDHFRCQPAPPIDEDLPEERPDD
From the text: (§1) The existence and intensity of “adenosine A1-receptor antagonizing activity” and/or “adenosine A2a-receptor antagonizing activity” can be ascertained and assessed typically by the following test method. The intensity of adenosine A1-receptor antagonizing action and of adenosine A2a-receptor antagonizing action as referred to in the appended claims also means the value found by the method described below.
(§2) “Estimation of Adenosine A1 and A2a-receptor antagonizing activity”
(§3) Membrane fractions prepared from the CHO cells which transfected stably with human recombinant A1 or A2a receptors were incubated for 1 hr at 25° C. with test compounds, ADA, 50 mM Tris buffer and [3H]-DPCPX (final 4 nM) or [3H]-CGS21680 (final 15 nM), respectively. Reaction mixtures were filtrated with 96-well harvestor to separate free ligands from bound fraction using GF/C filter. Radioactivity of the dried filter was counted, and specific binding of each labelled rigands was calculated.

[2] = system: male SD rats; assay: Test 2 Anxiolytic action (social interaction test); type: in vivo; settings: 0.32 mg/kg oral 1 h before test, 15 min observation, control 51.3 ± 6.0
Description: Two male SD rats acclimated for 1 week and handled once were used in sets. One hour before beginning of the test, both rats in each set were orally dosed with the same amount of the test compound or the vehicle. Immediately thereafter, both rats were placed in a new environment where territories were to be established as yet and their behaviors were monitored and recorded over 15 minutes. After the test, the records were analyzed and evaluated in terms of the total duration of social interaction (social interaction time) (observation items: sniffing, following, grooming, kicking, boxing, biting, wrestling, crawling under or over the partner).

[3] = system: Male Wistar rats; assay: Test 3 Impaired-memory ameliorating action (scopolamine-impaired retention trial); type: in vivo; settings: scopolamine 1 mg/kg i.p. + test compound 1 mg/kg i.p. immediately after acquisition trial, scopolamine + control 80.2 ± 34.9, intact 300 ± 0
Description: Test 3 Impaired-Memory Ameliorating Action
Male Wistar rats were serially subjected to an acclimation trial, an acquisition trial 1 hour after the acclimation trial, and a retention trial 24 hours after the acquisition trial. Scopolamine 1 mg/kg was intraperitoneally administered 30 minutes before the acquisition trial. The test compound was intraperitoneally administered immediately after the acquisition trial.

[4] = system: Mice; assay: Test 1 Anticataleptic action (haloperidol-induced catalepsy); type: in vivo; settings: 1 mg/kg oral, 30 min before haloperidol 0.32 mg/kg i.p., observed 30 min later, control 100
Description: Test 1 Anticataleptic Action
Mice were orally dosed with the test compound as a suspention in 0.5% of methyl cellulose and, 30 minutes later, intraperitoneally dosed with 0.32 mg/kg of haloperidol.

[5] = biological target: T2, human recombinant A2a receptors (Homo sapiens, UniProt P29274); assay: Estimation of Adenosine A2a-receptor antagonizing activity ([3H]-CGS21680 binding, CHO cell membrane fractions); settings: at a concentration of 1.0×10^−6 M; [3H]-CGS21680 15 nM; read-out: inhibition rate for Adenosine A2a-receptor
T2 construct: expressed in transfected cells; host or cells: CHO cells
From the text: as §1, §2, §3

T2 sequence (P29274 whole entry): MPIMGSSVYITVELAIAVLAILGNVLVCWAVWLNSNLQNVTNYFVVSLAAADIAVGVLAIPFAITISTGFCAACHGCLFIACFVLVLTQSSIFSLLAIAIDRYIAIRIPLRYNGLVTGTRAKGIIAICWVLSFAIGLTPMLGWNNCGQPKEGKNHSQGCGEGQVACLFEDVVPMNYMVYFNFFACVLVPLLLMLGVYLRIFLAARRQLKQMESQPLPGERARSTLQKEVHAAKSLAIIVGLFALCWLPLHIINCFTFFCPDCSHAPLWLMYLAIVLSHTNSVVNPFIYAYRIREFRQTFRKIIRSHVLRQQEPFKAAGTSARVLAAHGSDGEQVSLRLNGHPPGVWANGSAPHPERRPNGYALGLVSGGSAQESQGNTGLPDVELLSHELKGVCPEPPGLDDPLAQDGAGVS

affinity for the adenosine A1-receptor relative to affinity for the adenosine A2a receptor ([1]; A1 affinity as a multiple of A2a affinity): 36 times | inhibition at 1 µM ([1]; at a concentration of 1.0×10^−6 M, [3H]-DPCPX 4 nM, read-out: inhibition rate for Adenosine A1-receptor): ≥ 80% | inhibition at 1 µM [5]: ≥ 80%
Compound: O=c1ccc(-c2c(-c3ccccc3)nn3ccccc23)nn1Cc1nccs1 [(A), 3-[2-(Thiazol-2-ylmethyl)-3-oxo-2,3-dihydropyridazin-6-yl]-2-phenylpyrazolo[1,5-a]pyridine]
Social interaction time [2]: 90.5 ± 12.5 s | Reaction latency in retention trial [3]: 215.6 ± 35.0 s | Incidence of catalepsy [4]: 20%

— patent US20040152659A1, “Method for the treatment of parkinson's disease comprising administering an A1A2a receptor dual antagonist” (Fujisawa Pharmaceutical Co. Ltd., priority 1999, published 2004)
